Results from patent US6500816B1, “Remedies for photochemotherapy” (Nippon Kayaku Kabushiki Kaisha, priority 1998, dated 2002).

Experiments:
[1] = background art statement; cited from earlier work
[2] = Maximum absorption wavelength of the compounds; assay type: physicochemical
From the text: Some representative examples of the compounds utilizable as the photochemotherapeutic agent according to the present invention are shown below.

Maximum absorption wavelength (λmax) [2] [nm] | Compound | maximum absorption wavelength [1] [nm]
 | dihematoporphyrin [Photofrin] | 363
820 | CCN(CC)c1ccc(C(=CC=CC(=C2C=CC(=[N+](CC)CC)C=C2)c2ccc(N(CC)CC)cc2)c2ccc(N(CC)CC)cc2)cc1 [Polymethine type 1] | 
1045 | CC1CC(C=CC=C/C=C2\CC(C)Cc3c(-c4ccccc4)cc(-c4ccccc4)[o+]c32)=C2OC(c3ccccc3)=CC(c3ccccc3)=C2C1 (stereo not drawn) [Polymethine type 4] | 
